Experimental data taken from patent US6479487B1, “6, 9-disubstituted 2-[trans-(4-aminocyclohexyl)amino] purines” (Aventis Pharmaceuticals Inc., priority 1998, dated 2002).
Several values for one entry are separate records, joined by “and”; a condition that tells them apart may be missing. Equal values may be shown once. Where a name gives a salt, the structure may show the parent alone. Read-outs that look alike come from different tables or passages of the source.

Assays:
cdk2/cyclin E = biological target: T1, cdk2/cyclin E (Homo sapiens, UniProt P24941); assay: Cyclin-Dependent Kinase 2 Assay (cdk2/cyclin E, GST-Rb substrate); type: biochemical; details: recombinant cdk2/cyclin E, 10 μM ATP, 30 min at 30° C., several values in a cell = separate determinations, read-out: CDK-2 Inhibition IC50
T1 construct: made in house; host or cells: insect cells (baculovirus co-infection)
Experimental: Substrate: GST-Rb as described above for cdk4/cyclin D1
Assay conditions for cdk2/cyclin E were identical to those for cdk4/cyclin D1 including the substrate. The concentration of recombinant cdk2/cyclin E in the assay was 0.1 μg per 100 μl assay. Incubation was for 30 min at 30° C.

cdk4/cyclin D1 = biological target: T2, cdk4/cyclin D1 (Homo sapiens, UniProt P11802); assay: Cyclin-dependent Kinase 4 Assay (cdk4/cyclin D1, GST-Rb substrate); type: biochemical; details: cdk4/cyclin D1 insect cell lysate, 10 μM ATP, 30 min at 37° C., several values = separate determinations, read-out: CDK4 Inhibition IC50
T2 construct: made in house; host or cells: Sf9 insect cells (Bac-to-Bac baculovirus, pFastBac)
T2 sequence (P11802 whole entry): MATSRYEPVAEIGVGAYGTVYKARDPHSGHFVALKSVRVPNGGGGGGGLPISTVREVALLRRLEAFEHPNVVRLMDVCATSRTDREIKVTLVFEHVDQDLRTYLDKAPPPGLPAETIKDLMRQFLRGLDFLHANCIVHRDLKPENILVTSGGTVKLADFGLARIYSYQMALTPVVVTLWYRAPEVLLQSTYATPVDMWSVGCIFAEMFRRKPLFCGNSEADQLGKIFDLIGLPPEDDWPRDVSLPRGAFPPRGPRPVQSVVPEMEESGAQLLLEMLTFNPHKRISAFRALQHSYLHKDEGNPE
T2 sequence (P24385 whole entry partner): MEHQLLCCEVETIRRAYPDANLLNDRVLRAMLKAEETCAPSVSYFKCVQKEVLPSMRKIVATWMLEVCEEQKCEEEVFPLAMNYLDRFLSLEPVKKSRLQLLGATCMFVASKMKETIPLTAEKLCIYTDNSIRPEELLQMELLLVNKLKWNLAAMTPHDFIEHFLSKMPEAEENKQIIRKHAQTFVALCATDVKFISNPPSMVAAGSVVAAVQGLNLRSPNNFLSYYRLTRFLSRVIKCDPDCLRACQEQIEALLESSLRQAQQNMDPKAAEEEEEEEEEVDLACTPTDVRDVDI
Experimental: The IC50 values for cdk4 inhibition were by the following method:
The transformed bacteria were grown overnight to saturation, then diluted in YT broth and incubated at 37° C. for 2 h. The protein was induced by incubation with 0.1 mM isopropylthioglycoside for 3 h. Following sedimentation by centrifugation, the cells were lysed by sonication in STE buffer ([…] NaCl, 10 mM Tris, pH 8.0, 1 mM EDTA) containing 10% sarkosyl. Particulate matter was removed by centrifugation and the lysate was incubated with glutathione-Sepharose at 4° C. The beads were washed with kinase buffer and then quantitation of Coomassie blue-stained proteins separated by SDS-PAGE was performed using a protein standard of known concentration.
The cDNA for human cyclin D1 was cloned by RT PCR using […] from MCF-7 cells. […] Bacmid DNA was used to transfect Sf9 insect cells to produce recombinant virus. Following plaque purification of the virus, the viral preparations were amplified until high titer stocks were acheived.
Lysates were prepared by lysis of Sf9 cells coinfected with cdk4 and cyclin D1 in 50 mM HEPES, pH 7.5, 10 mM MgCl2, 1 mM DTT, 0.1 mM phenylmethylsulfonyl fluoride, 5 μg/ml aprotinin, and 5 μg/ml leupeptin using a PARR bomb under 500 p.s.i nitrogen pressure for 5 min at 4° C. Insoluble material was sedimented at 10,000×g for 20 min at 4° C. Glycerol was added to the supernatant to 10% and stored at −80° C. in aliquots.
Pre-wet Millipore Multiscreen 96-well filter plates (0.65 μm Durapore filters) with 200 μl kinase buffer (50 mM HEPES, pH 7.5, 10 mM MgCl2, 1 mM EGTA). GST-Rb (0.5 μg) bound to glutathione-Sepharose beads is added in 50 μl per well and the solution removed by application of vacuum. […] Add 0.1 μg cdk4/cyclin D1 (insect cell lysate) to initiate assay. Incubate 30 min at 37° C. Terminate reaction by filtration on Millipore Vacuum Manifold. Wash four times with TNEN (20 mM Tris, pH 8.0, 100 mM Na Cl, 1 mM EDTA, 0.5% nonidet P-40). After drying the plates at room temperature, the filter plates were placed in adapter plates (Packard) and 40 μl of Microscint-O® (Packard) was added to each well. Top Seal A film was used to cover the plates before counting in a Top Count Scintillation Counter.

MDA-MB-231 = assay: In vitro tumor cell proliferation, MDA-MB-231; type: cell-based, human; details: sulforhodamine B or CyQUANT assay, many values given with an undefined *, read-out: In vitro Tumor Cell Proliferation (IC50, μM) Breast MDA-MB-231
Experimental: (§1) The proliferation of tumor cells was measured using a sulforhodamine B assay as described in Skehan, P., et al., J. Natl. Cancer Inst. […] Tumor cells were harvested with trypsin-EDTA, cells that excluded trypan blue were counted, added to 96-well plates and incubated overnight at 37° C. Drug was added to the wells following dilution in culture medium. Three days later, the medium was removed and replenished with medium containing fresh drug and incubated an additional 4 days. The cells were then fixed with 0.1 ml 10% trichloroacetic acid for 60 min at 4° C. The plates were rinsed five times with tap water, air-dried and stained for 30 min with 0.4% sulforhodamine B in 1% acetic acid and air-dried.
(§2) Alternatively, the CyQUANT cell proliferation assay was used to quantitate cell proliferation.
(§3) Alternatively, the CyQUANT cell proliferation assay was used to quantify tumor cell proliferation. Tumor cells were harvested with trypsin-EDTA, cells that excluded trypan blue were counted, added to 96-well plates and incubated overnight at 37° C. Drug was added to the wells following dilution in culture medium. Three days later the medium was removed and the plates frozen at −80° C. for at least 30 minutes.
MDA-MB-23 1 is a human breast adenocarcinoma, hormone-independent (HTB 26);

MDA-MB-435 = assay: In vitro tumor cell proliferation, MDA-MB-435; type: cell-based; details: values given with an undefined *, read-out: In vitro Tumor Cell Proliferation (IC50, μM) Breast MDA-MB-435
Experimental: as §1, §2, §3

Colo-205 = assay: In vitro tumor cell proliferation, Colo-205; type: cell-based; details: values given with an undefined *, read-out: In vitro Tumor Cell Proliferation (IC50, μM) Colon Colo-205
Experimental: as §1, §2, §3

A549 = assay: In vitro tumor cell proliferation, A549; type: cell-based, human; details: many values given with an undefined *, read-out: In vitro Tumor Cell Proliferation (IC50, μM) Lung A549
Experimental: as §1, §2, §3

DMS-114 = assay: In vitro tumor cell proliferation, DMS-114; type: cell-based, human; details: many values given with an undefined *, read-out: In vitro Tumor Cell Proliferation (IC50, μM) Lung DMS-114
Experimental: DMS-1 14: human small cell lung carcinoma;
as §1, §2, §3

HT-29 = assay: In vitro tumor cell proliferation, HT-29; type: cell-based, human; details: many values given with an undefined *, read-out: In vitro Tumor Cell Proliferation (IC50, μM) Colon HT-29
Experimental: as §1, §2, §3
HT-29 is a human colon adenocarcinoma, moderately well-differentiated grade II (HTB 38);

PC-3 = assay: In vitro tumor cell proliferation, PC-3; type: cell-based, human; details: many values given with an undefined *, read-out: In vitro Tumor Cell Proliferation (IC50, μM) Prostate PC-3
Experimental: as §1, §2, §3

[1] = Homo sapiens, MDA-MB-231, MDA-MB-231
[2] = Homo sapiens, MDA-MB-435, MDA-MB-435
[3] = Homo sapiens, COLO 205, Colo-205

Row | Structure (SMILES) | IC50 (cdk2/cyclin E) | IC50 (cdk4/cyclin D1) | IC50 (MDA-MB-231; [1]) | IC50 (MDA-MB-435; [2]) | IC50 (Colo-205; Colo-205, dihydrochloride) | IC50 (Colo-205; [3]) | IC50 (A549; Homo sapiens, A549, A549) | IC50 (DMS-114; DMS-114, dihydrochloride) | IC50 (DMS-114; Homo sapiens, DMS-114, DMS-114) | IC50 (MDA-MB-231; MDA-MB-231, dihydrochloride) | IC50 (MDA-MB-435; MDA-MB-435, dihydrochloride) | IC50 (HT-29; HT-29, dihydrochloride) | IC50 (HT-29; Homo sapiens, HT-29, HT-29) | IC50 (PC-3; Homo sapiens, PC-3, PC-3) | IC50 (PC-3; PC-3, dihydrochloride) | IC50 (A549; A549, dihydrochloride)
1 | COc1ccc(CNc2nc(N[C@H]3CC[C@H](N)CC3)nc3c2ncn3C(C)C)cc1OC [Example 19, 2-[Trans-(4-aminocyclohexyl)amino]-6-[(3.4-dimethoxybenzyl)amino]-9-(2-propyl)purine dihydrochloride] | 0.54 µM | 20 µM | 15 µM | 20 µM | 10 µM | 12 µM | 22 µM | 15 µM | 12 µM | – | – | – | – | – | – | –
2 | COCCCNc1nc(N[C@H]2CC[C@H](N)CC2)nc2c1ncn2C1CCCC1 [Example 22, 2-[Trans-(4-aminocyclohexyl)amino]-6-(3-methoxypropylamino)-9-cyclopentylpurine dihydrochloride] | 0.37 µM | 0.4 µM and 1.3 µM and 0.57 µM | 4.2 µM | 10 µM | 5.3 µM | 3.9 µM | – | 2.8 µM | 2.7 µM | 8.2 µM | 11 µM | 4.4 µM | 4 µM | 2.5 µM | 2.3 µM | –
3 | N[C@H]1CC[C@H](Nc2nc(NCCOCCO)c3ncn(C4CCCC4)c3n2)CC1 [Example 26, 2-[Trans-(4-aminocyclohexyl)amino]-6-(2-hydroxyethoxyethylamino)-9-cyclopentylpurine dihydrochloride] | 0.11 µM | 0.53 µM and 0.52 µM | – | 23 µM | 15 µM | – | – | 15 µM | 17 µM | – | 22 µM | 22 µM | – | 15 µM | 8 µM | 17 µM
